Measured values: patent US20140294849A1, “COMPOSITIONS AND USES” (GLAXOSMITHKLINE BIOLOGICALS SA, priority 2011, published 2014)

Key:
[1] = test system: Lineage-CD11b+ monocytes in peripheral blood; assay: Monocyte analysis and counting after adjuvant injection in mice; type: in vivo, C57BL/6 mice; settings: Example 12, single i.m. injection
Method: (§1) 24-Hours after injection of the TLR adjuvants, peripheral blood was drawn from C57BL/6 mice via cardiac puncture with lithium-heparin as anticoagulant. Red blood cell lysis was performed twice on pooled blood with Ammonium Chloride-based Buffer (Sigma, Steinheim, Germany) and cells were counted with the EasyCount™ System (Immunicon). […] Cells were finally washed three times and fixed for 15 min. with a 2% paraformaldehyde solution in PBS. Fluorescence minus one (FMO) controls were always included in the assays for fluorescent compensation setting. Samples were acquired on a flow cytometer (BD FACSCanto II) and data analyzed with the FACSDiva software (BD Biosciences). Monocytes were identified by their Side/Forward scatter properties and gated as CD3-/CD45R/B220-/Ly-6G-/NK1.1-(Lineage-)/CD11b+ cells. CD11b+ monocyte frequency was reported as a percentage of the total cells excluding debris.
as §1, with “24 hours” for “24-Hours”, “each immunomodulator,” for “the TLR adjuvants,”, “min” for “min.”, “monocytes” for “monocyte”
Cells were finally washed twice and fixed for 15 min. with a 2% paraformaldehyde solution in PBS. FMOs controls were always included in the assays. Samples were acquired on a flow cytometer (BD FACSCanto II) and data analyzed with the FACSDiva software (BD Biosciences). Monocytes were identified and counted by their Side/Forward scatter properties, excluding debris and gated as CD3-/CD45R/B220-/Ly-6G-/NK1.1-(Lineage-)/CD11 b+ cells.

[2] = test system: CD11b+ peripheral blood monocytes; assay: Ex vivo uptake assay of Aβ1-42; type: cell-based, C57BL/6 mice; settings: Example 14; AS01B mouse full dose (5 ug per mouse) or CRX601 2 μg, i.m.
Method: Preparation of cells: Peripheral blood was drawn from C57BL/6 mice via cardiac puncture with lithium-heparin as anticoagulant, 24-hours after injection of the adjuvants used herein. Red blood cell lysis was performed twice on pooled blood with Ammonium Chloride-based Buffer (Sigma, Steinheim, Germany) and cells were counted with the EasyCount™ System (Immunicon). […]
FACS analysis: cells were harvested after incubation with fluorescent Aβ peptide with Trypsin/EDTA and cold PBS and washed three times. 500,000 cells were incubated in 96-well plate for 10 min. on ice in the presence of Rat anti-Mouse CD16/CD32 (clone 2.4G2—BD Fc Block™) and further stained for 30 min. with a combination of the following directly conjugated antibodies at their pre-determined optimal concentration: PE-Hamster anti-Mouse CD3 (clone 145-2C11), Rat anti-Mouse CD45R/B220 (clone RA3-6B2), Rat anti-Mouse Ly-6G (clone 1A8), Mouse anti-Mouse NK1.1 (clone PK136), APC-conjugated Rat anti-Mouse CD11b (clone M1/70), PE-Cy7-conjugated Hamster anti-Mouse CD11c (clone HL3), (all from BD PharMingen). […]
Samples were acquired on a flow cytometer (BD FACSCanto II) and data analyzed with the FACSDiva software (BD Biosciences). […]

## CCCCCCCCCCC[C@H](CC(=O)N[C@H]1[C@H](OC[C@H](NC(=O)C[C@@H](CCCCCCCCCCC)OCCCCCCCCCC)C(=O)O)O[C@H](CO)[C@@H](OP(=O)(O)O)[C@@H]1OC(=O)C[C@@H](CCCCCCCCCCC)OCCCCCCCCCC)OCCCCCCCCCC [CRX601]
[1]
  monocyte effect at 20 μg dose: down modulated
[1]; 0.2 to 20 ug/mouse
  dose of maximum monocyte response: 10 µg
[1]; 24 hrs, compared to PBS
  dose enough to trigger an increase of the monocyte count: 1 µg
[2]
  ex vivo uptake of Aβ42 by monocytes compared to PBS group: higher amount of Aβ42
